Test results: patent publication US20240002395A1, “COMPOUNDS AND THEIR USE FOR TREATING NEUROPATHIC PAIN” (The Johns Hopkins University, priority 2020, published 2024)

Assays:
[1] = Metabolic stability in human liver microsomes; format: in vitro ADME
Protocol: [The procedure below names another species; the source lists this species under the same test.] (§1) The metabolic stability was evaluated using mouse liver microsomes. For the cytochrome P450 (CYP)-mediated metabolism, the reaction was carried out with 100 mM potassium phosphate buffer, pH 7.4, in the presence of NADPH regenerating system (1.3 mM NADPH, 3.3 mM glucose 6-phosphate, 3.3 mM MgCl2, 0.4 U/mL glucose-6-phosphate dehydrogenase, 50 μM sodium citrate). Reactions, in triplicate, were initiated by addition of the liver microsomes to the incubation mixture (compound final concentration was 5 μM; 0.5 mg/mL microsomes). After 60 min of incubation, aliquots of the mixture were removed and the reaction quenched by addition of three times the volume of ice-cold acetonitrile spiked with the internal standard. Compound disappearance was monitored over time using a liquid chromatography and tandem mass spectrometry (LC/MS/MS) method.

[2] = Metabolic stability in mouse liver microsomes; format: in vitro ADME; conditions: mouse liver microsomes 0.5 mg/mL, NADPH, compound 5 μM, 60 min
Protocol: as §1

[3] = test system: MrgprX1 mice after sciatic CCI; assay: Chronic constrictive injury (CCI) model, heat hypersensitivity (Hargreaves test); format: in vivo; conditions: 100 mg/kg oral gavage
Protocol: Compound 7a was examined for its ability to attenuate heat hypersensitivity in MrgprX1 mice after receiving sciatic CCI, according to the previously described methods (Proc Natl Acad Sci USA. 2017 Mar. 7; 114(10):E1996-E2005). Paw withdrawal latency (PWL) to noxious heat stimuli was measured with the Hargreaves test. The results are summarized in FIG. 2 (** P<0.01, *** P<0.001 vs. vehicle; ##P<0.01, ###P<0.001, ####P<0.0001 vs. pre-drug. Two-way mixed-model ANOVA with Bonferroni post hoc test. Data are expressed as mean+SD).

[4] = target: T1, human MrgprX1 (Homo sapiens, UniProt Q96LB2); assay: MrgprX1 positive allosteric modulator (PAM) calcium FLIPR assay in HEK293 cells; format: cell-based; conditions: PAM activity in presence of EC20 concentration of BAM8-22; HEK293 cells stably transfected with human MrgprX1
T1 construct: expressed in transfected cells
How it was run: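 Fluo-4-loaded HEK293 cells stably expressing human MrgprX1 preincubated 2.5 min with compound, then challenged with BAM8-22 at its EC20; calcium read on FLIPR for 2 min. EC50 is the half-maximal response, normalised between BAM8-22 EC20 (minimum) and 250 nM BAM8-22 (maximum).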

[5] = In vivo oral pharmacokinetics in mice; conditions: 100 mg/kg oral; for Tmax: male, CD-1, mouse
Protocol: Male CD-1 mice between 25 and 30 g were obtained from Harlan, and maintained on a 12-h light-dark cycle with ad libitum access to food and water. Three animals were used per time-point for each treatment group. Compound 7a was dissolved in 5% dimethyl acetamide, 10% Tween80, 10% Cremophor EL, 25% PEG400, and 50% water, and administered to male mice as a single oral dose by oral gavage of 100 mg/kg. The mice were sacrificed at various time points post-drug administration. Animals were euthanized with CO2, and blood samples were collected in heparinized microtubes by cardiac puncture. Brain and spinal cord tissues were dissected and immediately flash frozen (−80° C.). Blood samples were spun at 2,000×g for 15 min, plasma was removed and stored at −80° C. until LC-MS analysis. Prior to extraction, frozen samples were thawed on ice. The calibration curves were developed using plasma and brain from naïve animals as a matrix. Plasma samples (50 μL), were processed using a single liquid extraction method by addition of 300 μL of acetonitrile as with internal standard (losartan: 0.5 μM), followed by vortex mixing for 30 sec and then centrifugation at 10,000×g for 10 min at 4° C. Fifty microliter of the supernatant is diluted with 50 μL of water and transferred to 250 μL polypropylene autosampler vials sealed with a Teflon cap. For brain and spinal cord tissue analysis, samples were weighed in the range of (80-100 mg) to which 2-volumes of acetonitrile as with internal standard (losartan: 0.5 μM) was added and homogenized for extraction of the analyte. Samples were vortex mixed for 1 min and centrifuged as above. A 20 μL aliquot of supernatant was diluted with 20 μL of water and transferred to 250 μL polypropylene autosampler vials sealed with a Teflon cap. A volume of 3 μL was injected onto the ultra-performance liquid chromatography (UPLC) instrument for quantitative analysis by LC-MS/MS. Samples were analyzed on a Thermo Scientific Accela UPLC system coupled to Accela open autosampler at ambient temperature with an Agilent Eclipse Plus column (100×2.1 mm i.d.) packed with a 1.8 μm C18 stationary phase. The autosampler was temperature controlled and operated at 10° C. The mobile phase used for the chromatographic separation was composed of acetonitrile/water containing 0.1% formic acid and with a flow rate of 0.4 mL/min for 4.5 min using gradient elution. The column effluent was monitored using TSQ Vantage triple-quadrupole mass-spectrometric detector, equipped with an electrospray probe set in the positive ionization mode. Samples were introduced into the ionization source through a heated nebulized probe (350° C.).

[6] = intrathecal injection; cited from earlier work

T1 sequence (Q96LB2 whole entry): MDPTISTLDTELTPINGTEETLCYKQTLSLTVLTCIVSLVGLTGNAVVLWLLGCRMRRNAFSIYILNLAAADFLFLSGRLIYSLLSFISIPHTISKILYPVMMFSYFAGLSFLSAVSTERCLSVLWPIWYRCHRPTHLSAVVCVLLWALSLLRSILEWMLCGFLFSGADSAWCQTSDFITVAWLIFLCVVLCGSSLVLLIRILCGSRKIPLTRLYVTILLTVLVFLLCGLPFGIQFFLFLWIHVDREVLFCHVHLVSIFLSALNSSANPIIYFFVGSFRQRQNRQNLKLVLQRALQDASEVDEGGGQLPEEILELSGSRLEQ

% remaining after 1-h incubation, Human [1] [%] | % remaining after 1-h incubation, Mouse [2] [%] | EC50 [4] [nM] | AUC0-last ([5]; Brain) [µM·h] | Cmax ([5]; Brain) [µM] | Cmax ([5]; Plasma) [µM] | Cmax ([5]; Spinal cord) [µM] | Tmax ([5]; Brain) [h] | Tmax ([5]; Plasma) [h] | Tmax ([5]; Spinal cord) [h] | Compound | ipsilateral paw withdrawal latency (PWL) to noxious heat ([3]; 1-2 hours after dosing, day 12 and day 26 post-CCI, vs pre-drug level) | contralateral paw withdrawal latency (PWL) to noxious heat ([3]; compared to pre-drug baseline or vehicle-treated group) | efficacy in preclinical models of pain [6]
>95 | 25 | 100 | 2.37 ± 0.03 | 0.82 ± 0.05 | 39 ± 5.06 | 4.6 ± 0.6 | 1.67 ± 0.33 | 1.67 ± 0.33 | 1.17 ± 0.44 | CC(C)(C)c1sc2ncnc(Oc3ccccc3OC(F)(F)F)c2c1-c1ccc(Cl)c(Cl)c1 [Compound 7a, 6-tert-butyl-5-(3,4-dichlorophenyl)-4-(2-(trifluoromethoxy)phenoxy)thieno[2,3-d]pyrimidine] | significantly increased from pre-drug level | no significant changes | 
 |  |  |  |  |  |  |  |  |  | CCOc1ccccc1NC(=O)c1ccccc1NS(=O)(=O)C1CC1 [ML382, 2-(cyclopropanesulfonamido)-N-(2-ethoxyphenyl)benzamide] |  |  | showed efficacy
